Tests used:
[1] = test system: AD38 cells; assay: Viability of AD38 cells (Promega CellTiter-Glo); assay type: cell-based; conditions: 10 μM compound, 6 days, CellTiter-Glo luminescence normalized to DMSO control (100%)
Experimental: (§1) Example 2: Assay Measuring Activity of Compounds on Viral Production in and on Viability of AD38 Cells
(§2) AD38 cells were then re-suspended with 10 mL of Treatment Medium and counted. Wells of a collagen coated 96-well NUNC microtiter plate were seeded at 50,000/well in 180 μL of Treatment Medium, and 20 μL of in treatment media with either 10% DMSO (Control) or a 10× solution of compound in 10% DMSO was added. Plates were incubated for 6 days at 37° C.
At the end of compound treatment period cell viability was assessed using a Promega CellTiter-Glo protocol. All supernatant was removed the previously treated 96-well microtiter plate, and 50 μL Tetracycline-free treatment medium (DMEM/F12 (1:1), 1× Pen/step (cat #: 30-002-CL, Mediatech, Inc), with 2% FBS, Tet-system approved (cat #: 631106, Clontech), and 1% DMSO was added back to each well. Another 50 μL of CellTiter-Glo reagent solution (Promega, G7573) was then added at room temperature and the contents mixed for 2 minutes on an orbital shaker to induce cell lysis. This was followed by incubation at room temperature for 10 minutes to stabilize the luminescent signal. The luminescence was recorded for 0.2 seconds per well on a Tecan multimode plate reader (Infinite M1000 pro). The luminescent signal from each well was normalized against that of untreated (DMSO) control wells. All results were reported percent viability (with controls being 100%).

[2] = test system: HBV viral load in AD38 cells; assay: Viral load production in AD38 cells, quantitative PCR of the core sequence in supernatant; assay type: cell-based; conditions: 10 μM compound, 6 days at 37° C., supernatant qPCR, relative to DMSO control; for activity at 10 µM: Hepatitis B virus, 144 h, read-out: AD38 Viral Load (%) (VL with cmpd/VL in DMSO control) at 10 μM
Experimental: as §1, §2
Viral load production was assayed by quantitative PCR of the core sequence. […] The PCR mixture was incubated at 45° C. for 5 minutes, then 95° C. for 10 min, followed by 40 cycles of 10 seconds at 95° C. and 20 seconds at 60° C. Viral load was quantitated against known standards by using ViiA™ 7 Software. Viral load in the supernatant from wells with treated cells were compared against viral load in supernatant from DMSO control wells (>3 per plate).

Structure (SMILES) | AD38 Viability Normalized Result (cmpd/DMSO %) at 10 μM [1] | activity at 10 µM [2] | AD38 Viral Load (%) (VL with cmpd/VL in DMSO control) at 10 μM [2]
Cc1nc(C)c(CNC(=O)c2ccc3c(c2)NC(=O)c2ccccc2O3)s1 [compound 1769] | 101% | 43.3% | 
CC(C)CN1c2ccc(C(=O)NCc3cnc(-c4ccc(C#N)cc4F)s3)cc2NC(=O)c2ccccc21 [compound 11044] | 124% | 5.1% | 
Nc1ncc(-c2ncc(CNC(=O)c3ccc4c(c3)NC(=O)c3ccccc3O4)s2)cn1 [compound 1710] | 96% | 39.9% | 
O=C(NCc1cnc(-c2cc(F)ccn2)s1)c1ccc2c(c1)NC(=O)c1ccccc1S2(=O)=O [compound 11050] | 96% | 0.7% | 
C=CCN1c2ccc(C(=O)NCc3cnc(C(F)(F)F)s3)cc2NC(=O)c2ccccc21 [compound 1920] | 85% | 48.8% | 
NS(=O)(=O)c1ccc(-c2ncc(CNC(=O)c3ccc4c(c3)NC(=O)c3ccccc3O4)s2)cc1 [compound 1862] | 107% | 19.9% | 
Nc1ccc(-c2ncc(CNC(=O)c3ccc4c(c3)NC(=O)c3ccccc3S4(=O)=O)s2)cn1 [compound 1672] | 101% | 0.6% | 
N#Cc1ccc(-c2ncc(CNC(=O)c3ccc4c(c3)NC(=O)c3ccccc3S4(=O)=O)s2)nc1 [compound 1881] | 108% | 0.8% | 
NS(=O)(=O)c1ccc(-c2ncc(CNC(=O)c3ccc4c(c3)NC(=O)c3ccccc3S4(=O)=O)s2)cc1 [compound 1856] | 96% | 1.3% | 
O=C1Cc2cccc(-c3ncc(CNC(=O)c4ccc5c(c4)NC(=O)c4ccccc4S5(=O)=O)s3)c2N1 [compound 1930] | 91% | 23.8% | 
CC(C)(O)Cc1ccccc1-c1ncc(CNC(=O)c2ccc3c(c2)NC(=O)c2ccccc2S3(=O)=O)s1 [compound 1840] | 107% | 3.2% | 
Cc1cc(-c2ncc(CNC(=O)c3ccc4c(c3)NC(=O)c3ccccc3S4(=O)=O)s2)cc(C)c1O [compound 1806, N-((2-(4-hydroxy-3,5-dimethylphenyl)thiazol-5-yl)methyl)-11-oxo-10, 11-dihydrodibenzo [b, f] [1, 4] thiazepine-8-carboxamide 5,5-dioxide] | 105% | 0.8% | 
O=C1CCc2cc(-c3ncc(CNC(=O)c4ccc5c(c4)NC(=O)c4ccccc4S5(=O)=O)s3)ccc2N1 [compound 1951] | 101% | 1.8% | 
Cl.NCCCCc1ccc(-c2ncc(CNC(=O)c3ccc4c(c3)NC(=O)c3ccccc3S4(=O)=O)s2)cc1 [compound 11004, N-((2-(4-(4-aminobutyl)phenyl)thiazol-5-yl)methyl)-11-oxo-10, 11-dihydrodibenzo [b, f] [1, 4] thiazepine-8-carboxamide 5,5-dioxide hydrochloride salt] | 94% | 5.5% | 
Nc1ccc(-c2ncc(CNC(=O)c3ccc4c(c3)NC(=O)c3ccccc3S4(=O)=O)s2)cc1 [1645-B, N-((2-(4-aminophenyl)thiazol-5-yl)methyl)-11-oxo-10, 11-dihydrodibenzo [b, f] [1, 4] thiazepine-8-carboxamide 5,5-dioxide] | 100% | 77.8% | 
O=C(NCc1cnc(-c2ccc(OCCCN3CCOCC3)cc2)s1)c1ccc2c(c1)NC(=O)c1ccccc1O2 [compound 11161, N-((2-(4-(3-morpholinopropoxy)phenyl)thiazol-5-yl)methyl)-11-oxo-10, 11-dihydrodibenzo [b, f] [1, 4] oxazepine-8-carboxamide] | 104% | 1.7% | 
O=C(NCc1cnc(-c2ccc(OCCCN3CCC3)cc2)s1)c1ccc2c(c1)NC(=O)c1ccccc1S2(=O)=O [compound 11105] | 95% | 1.6% | 
O=C(NCc1cnc(-c2ccc(O)cc2)s1)c1ccc2c(c1)NC(=O)c1ccccc1S2(=O)=O [compound 1595, N-((2-(4-hydroxyphenyl)thiazol-5-yl)methyl)-11-oxo-10, 11-dihydrodibenzo [b, f] [1, 4] thiazepine-8-carboxamide 5,5-dioxide] | 109% | 0.3% | 
O=C(NCc1cnc(-c2ccc(OCCCN3CCC3)cc2)s1)c1ccc2c(c1)NC(=O)c1ccccc1S2(=O)=O [compound 11142] | 87% |  | 0.8%
O=C(NCc1cnc(-c2ccc(O)cc2)s1)c1ccc2c(c1)NC(=O)c1ccccc1S2 [compound 1605] | 96% | 0.7% | 
Cc1c(C(=O)NCc2cnc(-c3ccc(C(N)=O)cc3)s2)ccc2c1NC(=O)c1ccccc1S2(=O)=O [compound 1878, N-((2-(4-carbamoylphenyl)thiazol-5-yl)methyl)-9-methyl-11-oxo-10, 11-dihydrodibenzo [b, f] [1, 4] thiazepine-8-carboxamide 5,5-dioxide] | 103% | 1% | 
O=C(NCc1cnc(-c2cscn2)s1)c1ccc2c(c1)NC(=O)c1ccccc1S2(=O)=O [compound 11049] | 89% | 0.8% | 
CN(C)CCOc1ccc(-c2ncc(CNC(=O)c3ccc4c(c3)NC(=O)c3ccccc3S4(=O)=O)s2)cc1 [compound 1584] | 101% | 1.4% | 
N#CC1(COc2ccc(-c3ncc(CNC(=O)c4ccc5c(c4)NC(=O)c4ccccc4S5(=O)=O)s3)cc2)CCC1 [compound 11182] | 104% | 0.7% | 
O=C(O)CNc1ncc(CNC(=O)c2ccc3c(c2)NC(=O)c2ccccc2S3)s1 [compound 1602, (5-((11-oxo-10, 11-dihydrodibenzo [b, f] [1, 4]thiazepine-8-carboxamido)methyl)thiazol-2-yl) glycine] | 97% | 59.8% | 
COc1ccc(-c2ncc(CNC(=O)c3ccc4c(c3)NC(=O)c3ccccc3S4)s2)cc1 [compound 1606] | 91% | 3% | 
CN(C)CCCOc1ccc(-c2ncc(CNC(=O)c3ccc4c(c3Cl)NC(=O)c3ccccc3S4(=O)=O)s2)cc1 [C51-01] | 99% | 0.4% | 
